Source: ChEMBL document CHEMBL4507319 (2021)

Tests used:
Details in all cases: Compound concentration 1000.0 nM
[1] = molecular target: Cyclin-dependent kinase-like 1 (Homo sapiens) (UniProt Q00532)
[2] = molecular target: ALK tyrosine kinase receptor (Homo sapiens) (UniProt Q9UM73)
[3] = molecular target: Serine/threonine-protein kinase MRCK alpha (Homo sapiens) (UniProt Q5VT25)
[4] = system: Receptor-type tyrosine-protein kinase FLT3 (Homo sapiens), P36888 [UNDEFINED MUTATION]
[5] = molecular target: T1, Ephrin type-A receptor 1 (Homo sapiens) (UniProt P21709)
T1 sequence (whole entry): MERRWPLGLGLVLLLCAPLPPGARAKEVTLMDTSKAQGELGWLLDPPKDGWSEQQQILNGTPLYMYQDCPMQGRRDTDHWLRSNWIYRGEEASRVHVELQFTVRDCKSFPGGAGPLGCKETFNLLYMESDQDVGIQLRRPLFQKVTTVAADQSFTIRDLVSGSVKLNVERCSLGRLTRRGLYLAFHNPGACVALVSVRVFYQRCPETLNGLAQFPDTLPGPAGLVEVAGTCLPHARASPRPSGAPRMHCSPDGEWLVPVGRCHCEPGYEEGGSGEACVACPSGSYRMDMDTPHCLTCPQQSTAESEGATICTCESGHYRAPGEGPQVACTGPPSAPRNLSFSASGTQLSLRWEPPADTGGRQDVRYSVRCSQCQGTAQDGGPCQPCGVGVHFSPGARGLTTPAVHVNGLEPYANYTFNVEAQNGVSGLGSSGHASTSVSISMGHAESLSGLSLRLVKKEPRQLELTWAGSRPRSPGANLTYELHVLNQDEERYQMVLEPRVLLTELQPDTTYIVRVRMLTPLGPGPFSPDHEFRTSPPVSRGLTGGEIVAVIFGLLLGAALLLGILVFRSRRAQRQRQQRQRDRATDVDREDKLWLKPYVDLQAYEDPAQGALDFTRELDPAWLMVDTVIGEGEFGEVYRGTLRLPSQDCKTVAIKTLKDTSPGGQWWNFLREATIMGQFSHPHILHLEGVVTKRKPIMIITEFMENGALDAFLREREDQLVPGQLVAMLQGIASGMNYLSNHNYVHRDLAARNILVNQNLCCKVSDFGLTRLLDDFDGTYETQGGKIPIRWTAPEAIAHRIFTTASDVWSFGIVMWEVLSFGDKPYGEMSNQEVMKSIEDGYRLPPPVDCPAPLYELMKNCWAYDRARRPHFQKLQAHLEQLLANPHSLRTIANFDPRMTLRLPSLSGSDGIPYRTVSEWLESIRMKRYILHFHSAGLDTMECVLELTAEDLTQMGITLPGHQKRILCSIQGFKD

[6] = molecular target: Receptor-type tyrosine-protein kinase FLT3 (Homo sapiens) (UniProt P36888)
[7] = molecular target: Focal adhesion kinase 1 (Homo sapiens) (UniProt Q05397)
[8] = molecular target: Serine/threonine-protein kinase D3 (Homo sapiens) (UniProt O94806)
Sequence of Serine/threonine-protein kinase D3 (Homo sapiens) (O94806 whole entry): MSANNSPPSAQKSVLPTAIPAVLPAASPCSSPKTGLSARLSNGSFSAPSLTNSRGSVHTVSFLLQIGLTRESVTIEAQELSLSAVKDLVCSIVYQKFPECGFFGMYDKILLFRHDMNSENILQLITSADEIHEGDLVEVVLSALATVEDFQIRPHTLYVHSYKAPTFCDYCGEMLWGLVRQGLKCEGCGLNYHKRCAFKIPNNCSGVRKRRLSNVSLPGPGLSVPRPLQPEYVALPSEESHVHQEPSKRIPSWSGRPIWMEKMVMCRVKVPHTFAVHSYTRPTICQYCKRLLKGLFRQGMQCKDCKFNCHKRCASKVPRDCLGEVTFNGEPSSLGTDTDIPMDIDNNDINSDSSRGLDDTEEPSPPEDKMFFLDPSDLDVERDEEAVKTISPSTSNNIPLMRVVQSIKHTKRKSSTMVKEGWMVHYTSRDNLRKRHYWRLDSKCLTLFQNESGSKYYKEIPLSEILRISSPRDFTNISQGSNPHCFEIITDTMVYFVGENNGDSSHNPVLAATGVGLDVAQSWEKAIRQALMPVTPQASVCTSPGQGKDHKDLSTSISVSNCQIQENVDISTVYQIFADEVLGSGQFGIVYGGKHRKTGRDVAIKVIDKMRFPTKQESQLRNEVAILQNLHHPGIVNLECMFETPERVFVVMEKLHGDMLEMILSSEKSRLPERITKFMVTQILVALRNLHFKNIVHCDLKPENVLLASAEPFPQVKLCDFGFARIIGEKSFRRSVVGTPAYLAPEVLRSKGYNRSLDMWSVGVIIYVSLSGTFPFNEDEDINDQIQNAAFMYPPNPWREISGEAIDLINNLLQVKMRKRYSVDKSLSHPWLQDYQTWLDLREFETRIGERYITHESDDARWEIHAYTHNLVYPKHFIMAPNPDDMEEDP

[9] = molecular target: T2, NUAK family SNF1-like kinase 2 (Homo sapiens) (UniProt Q9H093)
T2 sequence (whole entry): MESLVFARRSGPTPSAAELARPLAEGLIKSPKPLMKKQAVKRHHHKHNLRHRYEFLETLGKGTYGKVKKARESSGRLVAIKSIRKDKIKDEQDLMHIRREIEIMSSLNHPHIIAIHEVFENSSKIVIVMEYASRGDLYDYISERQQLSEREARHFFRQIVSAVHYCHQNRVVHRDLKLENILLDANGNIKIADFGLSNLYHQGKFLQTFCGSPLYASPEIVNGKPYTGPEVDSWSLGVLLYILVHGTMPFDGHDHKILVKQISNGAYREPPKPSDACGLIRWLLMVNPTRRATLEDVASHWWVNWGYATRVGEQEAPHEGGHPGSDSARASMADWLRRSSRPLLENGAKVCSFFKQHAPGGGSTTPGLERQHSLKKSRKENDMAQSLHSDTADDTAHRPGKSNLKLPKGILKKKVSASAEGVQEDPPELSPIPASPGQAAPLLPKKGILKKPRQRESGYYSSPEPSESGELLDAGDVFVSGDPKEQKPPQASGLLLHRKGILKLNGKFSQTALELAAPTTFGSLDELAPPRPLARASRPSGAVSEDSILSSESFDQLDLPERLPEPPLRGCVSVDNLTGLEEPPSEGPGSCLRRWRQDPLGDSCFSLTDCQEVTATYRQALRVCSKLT

[10] = system: ALK tyrosine kinase receptor (Homo sapiens), Q9UM73 [C1156Y]
Sequence of ALK tyrosine kinase receptor (Homo sapiens), Q9UM73 [C1156Y] (Q9UM73 whole entry C1156Y, looked up, the tested form may be a part): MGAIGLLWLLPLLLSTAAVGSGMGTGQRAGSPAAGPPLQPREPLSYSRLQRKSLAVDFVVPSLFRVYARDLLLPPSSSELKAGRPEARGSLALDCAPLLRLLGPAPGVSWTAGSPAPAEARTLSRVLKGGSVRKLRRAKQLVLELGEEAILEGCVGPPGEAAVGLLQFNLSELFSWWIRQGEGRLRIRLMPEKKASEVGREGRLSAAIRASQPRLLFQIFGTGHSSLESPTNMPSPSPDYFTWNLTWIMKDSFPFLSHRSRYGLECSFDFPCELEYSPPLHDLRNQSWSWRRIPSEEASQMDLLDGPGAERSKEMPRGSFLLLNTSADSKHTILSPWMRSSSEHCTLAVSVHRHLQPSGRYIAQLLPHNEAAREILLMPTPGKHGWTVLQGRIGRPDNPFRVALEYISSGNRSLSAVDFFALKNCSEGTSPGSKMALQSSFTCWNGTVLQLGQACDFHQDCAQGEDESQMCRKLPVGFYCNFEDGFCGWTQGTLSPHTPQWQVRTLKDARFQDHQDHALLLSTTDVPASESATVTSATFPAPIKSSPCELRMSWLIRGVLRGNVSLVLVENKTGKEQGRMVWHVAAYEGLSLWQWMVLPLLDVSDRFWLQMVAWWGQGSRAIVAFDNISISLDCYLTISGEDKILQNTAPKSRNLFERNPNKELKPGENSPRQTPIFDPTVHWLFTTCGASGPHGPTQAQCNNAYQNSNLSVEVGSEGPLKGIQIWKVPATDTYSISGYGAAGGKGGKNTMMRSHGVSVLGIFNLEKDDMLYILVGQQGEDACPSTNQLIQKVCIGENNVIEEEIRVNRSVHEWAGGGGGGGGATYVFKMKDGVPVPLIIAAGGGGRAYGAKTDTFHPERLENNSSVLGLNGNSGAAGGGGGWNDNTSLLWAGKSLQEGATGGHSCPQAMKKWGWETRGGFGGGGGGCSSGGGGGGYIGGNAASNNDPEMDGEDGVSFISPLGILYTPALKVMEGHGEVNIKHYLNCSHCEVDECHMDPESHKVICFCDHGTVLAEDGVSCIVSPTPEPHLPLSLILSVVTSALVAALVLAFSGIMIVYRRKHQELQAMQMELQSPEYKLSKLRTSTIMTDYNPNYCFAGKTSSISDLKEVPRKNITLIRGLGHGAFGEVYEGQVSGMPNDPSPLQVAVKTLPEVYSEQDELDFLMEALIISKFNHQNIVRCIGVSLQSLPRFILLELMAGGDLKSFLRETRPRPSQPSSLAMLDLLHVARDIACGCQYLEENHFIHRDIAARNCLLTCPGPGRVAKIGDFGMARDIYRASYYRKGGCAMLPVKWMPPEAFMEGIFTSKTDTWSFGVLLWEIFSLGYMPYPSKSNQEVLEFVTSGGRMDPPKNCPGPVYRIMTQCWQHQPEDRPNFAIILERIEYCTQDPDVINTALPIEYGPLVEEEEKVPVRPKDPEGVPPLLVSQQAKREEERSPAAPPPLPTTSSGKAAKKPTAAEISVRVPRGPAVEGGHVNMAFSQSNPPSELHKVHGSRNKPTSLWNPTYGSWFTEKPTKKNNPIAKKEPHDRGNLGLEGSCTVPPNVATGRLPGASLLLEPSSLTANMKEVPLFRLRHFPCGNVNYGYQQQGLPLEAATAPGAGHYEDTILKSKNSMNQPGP

[11] = molecular target: Ankyrin repeat and protein kinase domain-containing protein 1 (Homo sapiens) (UniProt Q8NFD2)
Sequence of Ankyrin repeat and protein kinase domain-containing protein 1 (Homo sapiens) (Q8NFD2 whole entry, the tested form may be a part): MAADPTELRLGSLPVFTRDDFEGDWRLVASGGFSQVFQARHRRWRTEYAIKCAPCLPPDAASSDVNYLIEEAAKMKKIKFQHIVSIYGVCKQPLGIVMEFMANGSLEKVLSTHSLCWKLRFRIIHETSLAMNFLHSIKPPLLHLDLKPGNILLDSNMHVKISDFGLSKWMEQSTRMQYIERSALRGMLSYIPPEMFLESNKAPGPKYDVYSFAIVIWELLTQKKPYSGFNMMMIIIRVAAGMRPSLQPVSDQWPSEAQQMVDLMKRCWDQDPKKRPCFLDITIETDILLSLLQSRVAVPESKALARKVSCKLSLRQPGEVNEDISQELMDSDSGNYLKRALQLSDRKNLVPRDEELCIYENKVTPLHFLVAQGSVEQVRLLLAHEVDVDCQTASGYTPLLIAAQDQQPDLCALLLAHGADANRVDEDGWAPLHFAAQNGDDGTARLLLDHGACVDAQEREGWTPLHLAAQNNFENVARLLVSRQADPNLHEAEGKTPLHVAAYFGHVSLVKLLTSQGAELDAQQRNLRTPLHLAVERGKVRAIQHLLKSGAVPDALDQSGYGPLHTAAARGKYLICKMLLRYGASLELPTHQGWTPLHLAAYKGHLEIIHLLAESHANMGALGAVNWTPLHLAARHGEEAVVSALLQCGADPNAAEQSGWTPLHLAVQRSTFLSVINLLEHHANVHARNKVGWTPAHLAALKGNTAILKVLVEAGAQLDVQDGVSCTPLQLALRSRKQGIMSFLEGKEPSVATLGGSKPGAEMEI

[12] = molecular target: T3, NUAK family SNF1-like kinase 1 (Homo sapiens) (UniProt O60285)
T3 sequence (whole entry): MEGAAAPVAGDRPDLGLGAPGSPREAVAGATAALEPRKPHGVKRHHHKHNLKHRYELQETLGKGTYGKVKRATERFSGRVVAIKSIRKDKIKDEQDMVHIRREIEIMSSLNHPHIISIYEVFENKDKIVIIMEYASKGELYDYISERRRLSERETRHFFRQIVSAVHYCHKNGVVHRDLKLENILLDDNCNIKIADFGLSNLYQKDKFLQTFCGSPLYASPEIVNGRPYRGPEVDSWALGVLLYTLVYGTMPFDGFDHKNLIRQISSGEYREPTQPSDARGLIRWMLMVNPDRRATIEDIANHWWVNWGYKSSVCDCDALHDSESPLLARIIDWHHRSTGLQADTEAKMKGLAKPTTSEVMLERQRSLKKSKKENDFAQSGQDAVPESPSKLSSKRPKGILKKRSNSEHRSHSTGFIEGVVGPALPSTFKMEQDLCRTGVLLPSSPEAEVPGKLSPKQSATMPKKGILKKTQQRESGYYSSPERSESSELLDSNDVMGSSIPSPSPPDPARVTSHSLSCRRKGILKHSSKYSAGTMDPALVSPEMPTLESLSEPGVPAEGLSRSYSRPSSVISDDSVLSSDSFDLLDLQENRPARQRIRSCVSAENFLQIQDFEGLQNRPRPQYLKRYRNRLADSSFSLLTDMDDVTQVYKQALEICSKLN

[13] = molecular target: Insulin receptor (Homo sapiens) (UniProt P06213)
[14] = molecular target: Vascular endothelial growth factor receptor 3 (Homo sapiens) (UniProt P35916)
Sequence of Vascular endothelial growth factor receptor 3 (Homo sapiens) (P35916 whole entry): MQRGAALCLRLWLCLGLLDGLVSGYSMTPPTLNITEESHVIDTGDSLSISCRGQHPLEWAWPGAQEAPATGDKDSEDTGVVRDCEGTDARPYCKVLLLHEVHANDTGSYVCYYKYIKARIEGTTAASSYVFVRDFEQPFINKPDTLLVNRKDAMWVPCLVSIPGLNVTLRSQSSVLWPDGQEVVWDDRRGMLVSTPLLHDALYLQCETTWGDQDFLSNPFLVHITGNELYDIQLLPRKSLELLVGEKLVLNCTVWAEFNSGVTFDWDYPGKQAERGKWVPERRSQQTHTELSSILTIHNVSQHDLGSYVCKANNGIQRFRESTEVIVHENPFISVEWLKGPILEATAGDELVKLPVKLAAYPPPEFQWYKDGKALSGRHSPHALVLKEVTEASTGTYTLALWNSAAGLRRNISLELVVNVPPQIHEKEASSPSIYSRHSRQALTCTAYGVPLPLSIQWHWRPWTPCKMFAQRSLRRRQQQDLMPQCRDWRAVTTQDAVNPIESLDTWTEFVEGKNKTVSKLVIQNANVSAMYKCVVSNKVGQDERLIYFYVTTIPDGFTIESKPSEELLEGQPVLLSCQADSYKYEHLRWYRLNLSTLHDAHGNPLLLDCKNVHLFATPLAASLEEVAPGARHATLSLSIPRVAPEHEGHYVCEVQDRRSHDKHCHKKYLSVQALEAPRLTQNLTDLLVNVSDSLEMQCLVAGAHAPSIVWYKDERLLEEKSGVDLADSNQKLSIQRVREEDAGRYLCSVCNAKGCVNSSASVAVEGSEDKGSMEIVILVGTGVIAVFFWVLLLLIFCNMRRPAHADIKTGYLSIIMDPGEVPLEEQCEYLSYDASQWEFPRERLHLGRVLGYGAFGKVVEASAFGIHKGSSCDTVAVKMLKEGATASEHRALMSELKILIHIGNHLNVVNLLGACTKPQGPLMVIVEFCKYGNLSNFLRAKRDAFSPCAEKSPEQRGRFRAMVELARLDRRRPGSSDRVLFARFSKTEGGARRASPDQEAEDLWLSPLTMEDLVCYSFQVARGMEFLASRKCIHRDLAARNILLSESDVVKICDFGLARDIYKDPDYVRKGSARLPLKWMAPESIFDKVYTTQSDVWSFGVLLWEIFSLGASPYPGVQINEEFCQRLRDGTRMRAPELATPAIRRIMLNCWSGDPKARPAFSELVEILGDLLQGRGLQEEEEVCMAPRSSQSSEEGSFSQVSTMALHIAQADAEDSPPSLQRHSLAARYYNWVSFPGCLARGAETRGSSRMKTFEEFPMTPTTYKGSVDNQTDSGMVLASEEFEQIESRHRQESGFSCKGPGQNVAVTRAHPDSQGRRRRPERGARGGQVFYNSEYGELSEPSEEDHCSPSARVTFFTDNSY

Sequence of Cyclin-dependent kinase-like 1 (Homo sapiens) (Q00532 whole entry): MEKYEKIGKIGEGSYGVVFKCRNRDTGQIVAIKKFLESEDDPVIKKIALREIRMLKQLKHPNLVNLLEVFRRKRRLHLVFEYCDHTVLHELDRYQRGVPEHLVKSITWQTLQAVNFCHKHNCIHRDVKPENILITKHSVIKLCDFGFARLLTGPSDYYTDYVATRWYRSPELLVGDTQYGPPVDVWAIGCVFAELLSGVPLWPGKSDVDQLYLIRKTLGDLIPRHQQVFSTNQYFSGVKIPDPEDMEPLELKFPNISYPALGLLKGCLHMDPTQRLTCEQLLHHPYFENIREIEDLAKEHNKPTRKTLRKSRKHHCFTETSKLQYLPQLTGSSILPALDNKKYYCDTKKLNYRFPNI

Compound | residual activity [1] [%] | residual activity [2] [%] | residual activity [3] [%] | residual activity [4] [%] | residual activity [5] [%] | residual activity [6] [%] | residual activity [7] [%] | residual activity [8] [%] | residual activity [9] [%] | residual activity [10] [%] | residual activity [11] [%] | residual activity [12] [%] | residual activity [13] [%] | residual activity [14] [%]
CCc1ccccc1C(=O)Nc1n[nH]c2c(C)c(F)c(C3C(C#N)=C(C)N(C)C(C)=C3C#N)cc12 [BAY-3827] | 87 | 98 | 100 | 11 | 60 | 88 | 82 | 88 | 40 | 100 | 100 | 33 | 100 | 85
CC1=C(C#N)C(c2ccc3c(c2)c(NC(=O)c2ccccc2C)nn3C)C(C#N)=C(C)N1 [BAY-974] | 72 | 100 | 100 | 64 | 88 | 96 | 94 | 72 | 81 | 96 | 92 | 95 | 100 | 100
